System: tau
Experiment: ^11C-PBB3 autoradiography and competition on large frozen AD brain sections
Assay type: binding, human
Set-up: NSP Binding: unit not given here
Method: Adjacent sections were used for autoradiography with ^11C-THK5351, ^11C-PBB3, and ^18F-T807. The frozen sections were allowed to reach room temperature, incubated for 30 minutes at room temperature with ^11C-THK5351 (0.4–0.56 nM; […]; specific activity 442–794 GBq/μmol) or for 55 minutes at room temperature with ^18F-T807 (0.04 nM; specific activity 281 GBq/μmol). We used 10 μM unlabeled THK5351, 10 μM unlabeled PBB3, and 10 μM unlabeled T807 to determine the extent of nonspecific binding for each tracer. The sections were rinsed three times for 5 minutes each with cold binding buffer, followed by a quick dip in cold distilled water. The sections were dried and exposed for 1 h (for ^11C-THK5351 and ^11C-PBB3) or for 3 h (^18 F-T807) on a phosphor imaging plate and then read using the BAS-2500 phosphor imager.
For all the autoradiography studies, the regions of interest were drawn manually on the autoradiogram using multigauge software and were used for the semiquantitative analyses. Photostimulated luminescence per square millimeter (PSL/mm^2) was transformed to picomoles per cubic millimeter using a transformation factor that took into account the resolution of the image, the pixel value for the concentration of ligand, and the thickness of the sections: (PSL/mm^2 value)/([pixel value per pmol] × [(resolution/1000)^2] × [cryosection thickness]/1000).

[1] = AD1, Basal ganglia, vs Unlabelled PBB3
[2] = AD1, Basal ganglia, vs Unlabelled T807
[3] = AD1, Frontal cortex, vs Unlabelled PBB3
[4] = AD1, Frontal cortex, vs Unlabelled T807
[5] = AD1, Frontal cortex, vs Unlabelled THK5351
[6] = AD1, Insula, vs Unlabelled PBB3
[7] = AD1, Insula, vs Unlabelled T807
[8] = AD1, Temporal cortex, vs Unlabelled PBB3
[9] = AD1, Temporal cortex, vs Unlabelled T807
[10] = AD1, Temporal cortex, vs Unlabelled THK5351
[11] = AD2, Basal ganglia, vs Unlabelled PBB3
[12] = AD2, Basal ganglia, vs Unlabelled T807
[13] = AD2, Basal ganglia, vs Unlabelled THK5351
[14] = AD2, Frontal cortex, vs Unlabelled PBB3
[15] = AD2, Frontal cortex, vs Unlabelled T807
[16] = AD2, Frontal cortex, vs Unlabelled THK5351
[17] = AD2, Insula, vs Unlabelled PBB3
[18] = AD2, Insula, vs Unlabelled T807
[19] = AD2, Insula, vs Unlabelled THK5351
[20] = AD2, Temporal cortex, vs Unlabelled PBB3
[21] = AD2, Temporal cortex, vs Unlabelled T807
[22] = AD2, Temporal cortex, vs Unlabelled THK5351
[23] = AD3, Basal ganglia, vs Unlabelled PBB3
[24] = AD3, Basal ganglia, vs Unlabelled T807
[25] = AD3, Basal ganglia, vs Unlabelled THK5351
[26] = AD3, Frontal cortex, vs Unlabelled PBB3
[27] = AD3, Frontal cortex, vs Unlabelled T807
[28] = AD3, Frontal cortex, vs Unlabelled THK5351
[29] = AD3, Insula, vs Unlabelled PBB3
[30] = AD3, Insula, vs Unlabelled T807
[31] = AD3, Insula, vs Unlabelled THK5351
[32] = AD3, Temporal cortex, vs Unlabelled PBB3
[33] = AD3, Temporal cortex, vs Unlabelled T807
[34] = AD3, Temporal cortex, vs Unlabelled THK5351

## [11CH3]Nc1ccc(/C=C/C=C/c2nc3ccc(O)cc3s2)cn1 [^11C-PBB3, (5-((1E,3E)-4-(6-[^11C]methylamino)pyridin-3-yl)buta-1,3-dien-1-yl)benzo[d]thiazol-6-ol]
[1]
  % of specific binding: 50%
  NSP Binding: 2849
  Specific Binding: 2796
  Total Binding: 5645
[2]
  % of specific binding: 20%
  NSP Binding: 3201
  Specific Binding: 802
  Total Binding: 4004
[3]
  % of specific binding: 51%
  NSP Binding: 3317
  Specific Binding: 3433
  Total Binding: 6750
[4]
  % of specific binding: 17%
  NSP Binding: 3919
  Specific Binding: 782
  Total Binding: 4701
[5]
  % of specific binding: 22%
  NSP Binding: 1579
  Specific Binding: 439
  Total Binding: 2018
[6]
  % of specific binding: 45%
  NSP Binding: 3353
  Specific Binding: 2690
  Total Binding: 6043
[7]
  % of specific binding: 13%
  NSP Binding: 3842
  Specific Binding: 566
  Total Binding: 4409
[8]
  % of specific binding: 41%
  NSP Binding: 3425
  Specific Binding: 2352
  Total Binding: 5777
[9]
  % of specific binding: 4%
  NSP Binding: 4009
  Specific Binding: 178
  Total Binding: 4187
[10]
  % of specific binding: 28%
  NSP Binding: 1569
  Specific Binding: 596
  Total Binding: 2164
[11]
  % of specific binding: 47%
  NSP Binding: 3052
  Specific Binding: 2700
  Total Binding: 5752
[12]
  % of specific binding: 21%
  NSP Binding: 2790
  Specific Binding: 751
  Total Binding: 3541
[13]
  % of specific binding: 19%
  NSP Binding: 1517
  Specific Binding: 367
  Total Binding: 1884
[14]
  % of specific binding: 51%
  NSP Binding: 3051
  Specific Binding: 3187
  Total Binding: 6238
[15]
  % of specific binding: 15%
  NSP Binding: 3252
  Specific Binding: 595
  Total Binding: 3847
[16]
  % of specific binding: 17%
  NSP Binding: 1619
  Specific Binding: 341
  Total Binding: 1960
[17]
  % of specific binding: 48%
  NSP Binding: 3100
  Specific Binding: 2827
  Total Binding: 5927
[18]
  % of specific binding: 21%
  NSP Binding: 2838
  Specific Binding: 748
  Total Binding: 3585
[19]
  % of specific binding: 20%
  NSP Binding: 1580
  Specific Binding: 400
  Total Binding: 1979
[20]
  % of specific binding: 59%
  NSP Binding: 2988
  Specific Binding: 4222
  Total Binding: 7210
[21]
  % of specific binding: 12%
  NSP Binding: 3425
  Specific Binding: 448
  Total Binding: 3874
[22]
  % of specific binding: 36%
  NSP Binding: 1506
  Specific Binding: 831
  Total Binding: 2336
[23]
  % of specific binding: 48%
  NSP Binding: 2989
  Specific Binding: 2786
  Total Binding: 5775
[24]
  % of specific binding: 13%
  NSP Binding: 2721
  Specific Binding: 422
  Total Binding: 3143
[25]
  % of specific binding: 23%
  NSP Binding: 1577
  Specific Binding: 481
  Total Binding: 2058
[26]
  % of specific binding: 56%
  NSP Binding: 3132
  Specific Binding: 4039
  Total Binding: 7171
[27]
  % of specific binding: 21%
  NSP Binding: 3247
  Specific Binding: 879
  Total Binding: 4125
[28]
  % of specific binding: 27%
  NSP Binding: 1832
  Specific Binding: 678
  Total Binding: 2511
[29]
  % of specific binding: 46%
  NSP Binding: 3401
  Specific Binding: 2848
  Total Binding: 6249
[30]
  % of specific binding: 8%
  NSP Binding: 3261
  Specific Binding: 294
  Total Binding: 3555
[31]
  % of specific binding: 18%
  NSP Binding: 1815
  Specific Binding: 405
  Total Binding: 2220
AD3, Temporal cortex, 0.4nM
  Total Binding: 6400 pmol/mm^3
[32]
  % of specific binding: 50%
  NSP Binding: 3203
  Specific Binding: 3207
  Total Binding: 6409
[33]
  % of specific binding: 11%
  NSP Binding: 3217
  Specific Binding: 396
  Total Binding: 3612
[34]
  % of specific binding: 18%
  NSP Binding: 1818
  Specific Binding: 397
  Total Binding: 2215

From publication PMC5725799, “Comparative binding properties of the tau PET tracers THK5117, THK5351, PBB3, and T807 in postmortem Alzheimer brains” (Alzheimer's Research & Therapy, 2017)
